Tests used:
[1] = tested on: ovariectomised female Sprague Dawley rats; test: Plasma sexual hormone levels (radioimmunoassay) in ovariectomised female rats; assay type: in vivo, rat
Experimental: Ovariectomised adult female Sprague Dawley rats (180-200 g) were housed in groups of 6 in a reversed lighting system of 12 h light:dark (lights off 7.00-19.00 h). They were used for the experiments at least two weeks after ovariectomy. Forty eight hours before tests, the animals were primed with oestradiol benzoate (5 μg/0.1 ml in corn oil, s.c.). Progesterone (0.5 mg/0.1 ml, in corn oil, s.c.) was administered 4 h before blood collection, as a positive control. Compound (1) (3-10 mg/kg, i.p.) was administered in 50% 2-hydroxypropyl-β-cyclodextrin, 1 h prior to blood collection. Blood was collected from the trunk, after decapitation. It was immediately centrifuged (3500 r.p.m., 4° C., 5 min) and the plasmas frozen until assayed for hormonal content, using commercially available radioimmunoassay kits (^125I-labelled hormones) for oestradiol, progesterone, LH, FSH and prolactin.

[2] = tested on: ovariectomised female Sprague Dawley rats; test: Inhibition of female rat sexual proceptivity by NMB and its antagonism; assay type: in vivo; settings: pre-treatment 15 mg/kg i.p. 1 h before NMB 100 ng i.c.v.; progesterone-treated rats; blockade not total
Experimental: Ovariectomised female rats (Sprague Dawley, obtained from Charles River, UK) were stereotaxically implanted (coordinates 0.89 mm behind Bregma, 1.3 mm lateral and 2.5 mm vertical) with stainless steel cannulae (6 mm long, O.D. 0.75 mm), held in place with dental cement. Animals were housed in groups of three and returned to a reversed lighting system of 12 h light:dark (lights off 5.00-17.00 h). Correct placement of the cannulae was assessed post-mortem. Rats were used for tests two weeks after ovariectomy (one week after cannulation). The experiments started at least 5 h into the dark period. Forty eight hours before tests, the animals were primed with 5 μg oestradiol benzoate (OB) (s.c, in corn oil) and adapted to the apparatus (in the absence of stimuli animals) for 10 min on 2 consecutive days prior testing. The 10 min test was carried out as previously described. The difference in the percentage of time spent investigating male minus female was calculated, out of the total time spent investigating stimuli.
Progesterone (Prog, 0.5 mg/0.1 ml) was dissolved in corn oil and administered subcutaneously (s.c.), 4 h before test, to induce proceptive behaviour. Compound (1) (15 mg/kg, i.p.) was dissolved in 50% 2-hydroxypropyl-β-cyclodextrin in saline and administered 1 h before the i.c.v. administration. Neuromedin B was obtained from Bachem, UK. It was dissolved in isotonic saline and administered i.c.v. over a 30 sec period, with the aid of a pump set to deliver a flow of 10 μl/min, 10 min before tests. The dosing volume was 5 μl/rat. Each rat received a total amount of 100 ng.
From the present study we can conclude that stimulation of BB1 receptors with an agonist results in inhibition of proceptive behaviour. This inhibitory effect may be prevented by the presence of an antagonist. e.g. Compound (1) In FIG. 5 the bars represent percentage of time spent investigating male, minus the percentage of time spent investigating the female stimuli+SEM, (n=8-12 per group). ***P<0.001 vs progesterone (One-way ANOVA followed by Dunnett's test).

[3] = tested on: Sprague Dawley male rats; test: Sexual behaviour of sexually dysfunctional (fluoxetine-treated) male rats; assay type: in vivo, rat; settings: fluoxetine 20 mg/kg i.p. 3 days (vs vehicle+vehicle); day 4 Compound (1) 15 mg/kg or yohimbine 2 mg/kg i.p. 1 h before test (vs fluoxetine+vehicle)
Experimental: Sprague Dawley male rats (Charles River, UK) were kept, 4 rats per cage, in a reversed lighting regime (12:12 hours, lights off at 5.00 h), with free access to food and water. The rats were pre-selected by being presented with a receptive female at […], i.e. every third day (haying 2 clear days between presentations) until completing 6-7 trials of baseline determination. The animals showing consistently vigorous behaviour (ejaculatory latencies <300 s) were chosen for further experiments. Animals were treated for 3 consecutive days with either vehicle (water) or fluoxetine (20 mg/kg, i.p., in a 2 ml/kg dosing volume). On the fourth day, the animals treated with water received vehicle (veh+veh) and the animals treated with fluoxetine received one of the three following treatments: Compound (1) (15 mg/kg, dissolved in 50% 2-hydroxypropyl-β-cyclodextrin in saline), vehicle (cyclodextrine), or yohimbine (2 mg/kg dissolved in water). All treatments were administered i.p. in a 1 ml/kg volume, 1 h before tests.
For all the sexual behaviour tests, the males were placed in an observation arena (50-60 cm diameter), starting 5 hours into the dark cycle and observed under red illumination. Three to 4 minutes after placing the male in the arena, a receptive female (ovariectomised, bearing a 7 mm Silastic implant of oestradiol benzoate) was introduced to the arena and the following parameters noted: Mount Latency: time (in seconds) taken between introduction of female and first mount. A maximum time of 15 minutes (900 seconds) was allowed, and the test terminated if no mounts were recorded within that time (FIG. 16), Ejaculation Latency: time (in seconds) taken from first intromission to ejaculation. A maximum time of 30 minutes (1800 seconds) was given, and the test terminated if ejaculation was not achieved in that time (FIG. 17), Percentage of males achieving ejaculation within 30 minutes was calculated (FIG. 18).
A one-way ANOVA followed by Dunnett's t test was used to compare the fluoxetine+vehicle group and other groups for mount and ejaculatory latencies. Percentage of animals ejaculating was analysed using a Chi-square test followed by Fisher's test. (*: P<0.05, **: P<0.01, ***: P<0.001; n=15-19).

[4] = Compound (1) 3-10 mg/kg 1 h, progesterone 0.5 mg/0.1 ml s.c. 4 h before blood collection, vs vehicle
[5] = Compound (1) 3-10 mg/kg, 1 h before blood collection

Compound: COc1ccc(C2(CNC(=O)[C@](C)(Cc3c[nH]c4ccccc34)NC(=O)Nc3ccc([N+](=O)[O-])cc3)CCCCC2)nc1 [Compound (1), (S) 3-(1H-Indol-3-yl)-N-[1-(5-methoxy-pyridin-2-yl)-cyclohexyl-methyl]-2-methyl-2-[3-(4-nitro-phenyl)-ureido]-propionamide]
- LH plasma levels [1, 4]: no effect
- progesterone plasma levels [1, 4]: no effect
- FSH plasma levels [1, 5]: no effect
- oestradiol plasma levels [1, 5]: no effect
- prolactin plasma levels [1, 5]: no effect
- antagonism of the inhibitory effect of NMB on proceptivity [2]: prevented the inhibitory effect of NMB
- Ejaculation latency [3]: significantly decreased
- Mount latency [3]: significantly decreased
- percentage of animals ejaculating (within 30 minutes) [3]: increasing the percentage of animals ejaculating

From patent publication US20040087561A1, “Treatment of sexual dysfunction” (priority 2000, published 2004)
